“And” between values parts separate entries of the source, which are not always exact repeats. Equal entries are not always repeated.
Assay: Plasma levels of enflicoxib and pyrazol metabolite in the 6-month field clinical study (HPLC-MS/MS)
Type: in vivo, client-owned dogs with OA
Details: for Mean plasma level: oral 8 mg/kg then 4 mg/kg weekly
Experimental: A prospective, multisite, blinded, randomized, placebo-controlled, parallel-group field study was performed in accordance with Good Clinical Practice standards ([16]). The study aimed to confirm the safety and efficacy of enflicoxib treatment of pain and inflammation associated with naturally occurring canine OA in dogs of any breed and sex treated for 6 months. The protocol was approved by the regulatory authorities of both Portugal and Hungary. Written informed consent was obtained from all dog owners prior to enrolment of their dogs. Dogs remained under the care of their owners at home throughout the study.
Before enrolment, all dogs underwent a physical examination, and blood and urine samples were taken. After enrollment, dogs were randomized in a predefined enflicoxib:placebo ratio of 3:1. Enflicoxib was dosed orally at weekly intervals, with an initial dose of 8 mg/kg, followed by once-a-week maintenance doses of 4 mg/kg for a total of 26 weeks. Dogs in the enflicoxib group received Daxocox® tablets (Ecuphar/Animalcare group), while dogs in the placebo group received the same formulation without the active ingredient under the same posology (number of tablets and dosing interval). […] No positive control was included due to difficulties in maintaining blinding with products under different posology during the entire follow-up period.
Two blood samples for popPK analysis were collected from all animals enrolled in the study one on day 44(±2 days)/1.5 months, (similar to the last sample taken in the previous clinical studies), after clinical assessment of pain and lameness and prior to treatment administration and another one at the end of the study on day 189/6 months (±2 days), or individual premature study termination day. Day 189 corresponds to the trough concentration after the 27th weekly administration (PK sample taken at the end of the weekly dosing interval). Meanwhile, day 44 corresponds to a PK sample obtained 2 days after the 7th weekly administration. The veterinary practices had the necessary resources and adequate freezing equipment for the long-term storage of plasma samples. Blood samples were collected into potassium-3-ethylenediaminetetraacetic acid (K3EDTA) labeled tubes, which were immediately centrifuged at ~2,500g for 10 min (at +4 °C whenever possible) to obtain plasma. Once received, plasma was transferred into two labeled propylene tubes (aliquots 1 and 2). Each plasma aliquot was stored frozen at a nominal temperature of −20 (±2) °C until shipment to the Laboratory of analysis Welab Barcelona (Parc Científic de Barcelona, C/Baldiri Reixac 4-12, 08028, Barcelona). The maximum storage time for the samples was 376 days at nominally −20 °C/−80 °C. Considering the long-term stability of enflicoxib and its metabolite in dog plasma samples stored at −20 °C, which spans a minimum of 402 days, the stability of the study samples was guaranteed for the entire duration of the study. Samples were analyzed without information on the treatment allocation (laboratory-blinded study).
Enflicoxib and pyrazol metabolite plasma levels were measured by a previously fully validated high-performance liquid chromatography (HPLC)-method coupled with tandem mass spectrometry (MS/MS) detection as described in Homedes et al. ([4]).

Which results are given for `NS(=O)(=O)c1ccc(N2N=C(C(F)(F)F)CC2c2ccc(F)cc2F)cc1` (stereo not drawn) [Enflicoxib]?
Mean plasma level (day 44 (2 days after 7th weekly administration), N=75): 491.7 ng/mL and 492 ng/mL; Max plasma level (day 44, N=75): 1,846.5 ng/mL; Min plasma level (day 44, N=75): 5.0 ng/mL; Probability (%) concentration < 10 ng/mL (day 44, N=75): 13.3%; Probability (%) concentration < LOQ (day 44, N=75): 9.3%; Probability (%) concentration < 10 ng/mL (day 44, N=75, listed as enflicoxib): 13%; Mean plasma level (day 93 (premature study termination), N=2): 296.8 ng/mL; Max plasma level (day 93, N=2): 356.0 ng/mL; Min plasma level (day 93, N=2): 237.7 ng/mL; Probability (%) concentration < 10 ng/mL (day 93, N=2): 0.0%; Probability (%) concentration < LOQ (day 93, N=2): 0.0%; Mean plasma level (day 189 (trough after 27th weekly administration), N=65): 262.5 ng/mL; Mean plasma level (day 189 (trough after 27th weekly administration), N=65, listed as enflicoxib): 263 ng/mL; Max plasma level (day 189, N=65): 1,846.3 ng/mL; Min plasma level (day 189, N=65): 5.0 ng/mL; Probability (%) concentration < 10 ng/mL (day 189, N=65): 27.7%; Probability (%) concentration < LOQ (day 189, N=65): 27.7%; Probability (%) concentration < 10 ng/mL (day 189, N=65, listed as enflicoxib): 28%

Reference: publication PMC12505664, “Enflicoxib for the long-term management of canine osteoarthritis—External validation of a population pharmacokinetic model in dogs with osteoarthritis” (Frontiers in Veterinary Science, 2025)
